According to patent publication US20050026984A1, “Substituted thieno [2,3-c] pyrazoles and their use as medicinal products” (Aventis Pharma S.A., priority 2003, published 2005):

melting point: 142 °C
Compound: O=C(O)c1cc2c(-c3ccccc3)n[nH]c2s1 [Example 1, 3-phenyl-1H-thieno[2,3-c]pyrazole-5-carboxylic acid]
